Results on 17 compounds are retold here after patent publication US8962608B2, “Cycloalkylnitrile pyrazole carboxamides as janus kinase inhibitors” (Merck Sharp & Dohme Corp., priority 2011, dated 2015).

Assay [1] concerns the target JAK2 (recombinant purified GST-tagged catalytic domain) (Homo sapiens (Human), UniProt O60674). Nature of the assay: biochemical.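 Note: biochemical JAK kinase assay with HTRF detection.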
Assay [2] addresses JAK1 (recombinant purified GST-tagged catalytic domain) (Homo sapiens (Human), UniProt P23458). Nature of the assay: biochemical.

Chain of JAK1 (recombinant purified GST-tagged catalytic domain) (P23458 875-1153): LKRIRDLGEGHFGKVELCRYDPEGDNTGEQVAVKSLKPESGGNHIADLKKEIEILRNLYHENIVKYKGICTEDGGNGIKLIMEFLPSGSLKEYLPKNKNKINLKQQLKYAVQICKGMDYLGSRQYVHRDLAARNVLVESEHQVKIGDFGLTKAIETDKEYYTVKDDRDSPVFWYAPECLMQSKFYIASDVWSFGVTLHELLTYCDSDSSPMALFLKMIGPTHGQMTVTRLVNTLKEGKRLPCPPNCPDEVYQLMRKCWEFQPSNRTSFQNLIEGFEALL
Chain of JAK2 (recombinant purified GST-tagged catalytic domain) (O60674 849-1124): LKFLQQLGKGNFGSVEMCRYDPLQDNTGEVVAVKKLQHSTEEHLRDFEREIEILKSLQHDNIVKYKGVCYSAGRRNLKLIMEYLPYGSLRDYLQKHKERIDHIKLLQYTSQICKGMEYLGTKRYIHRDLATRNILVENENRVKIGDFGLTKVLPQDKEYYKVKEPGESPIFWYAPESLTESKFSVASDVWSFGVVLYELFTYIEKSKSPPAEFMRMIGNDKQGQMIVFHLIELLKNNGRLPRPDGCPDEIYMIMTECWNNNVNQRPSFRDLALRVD

Regarding `N#C[C@H]1CCCC[C@@H]1n1cc(C(N)=O)c(Nc2cnc3ccc(F)cc3c2)n1` (single isomer, unassigned) [Example 17-48, 1-[(1S,2S or 1R,2R)-2-cyanocyclohexyl]-3-[(6-fluoroquinolin-3-yl)amino]-1H-pyrazole-4-carboxamide], the figures for the IC50 in assay [1] and in assay [2] were 14 nM and 2 nM, respectively.
In the same order, the values of `CS(=O)(=O)N[C@H]1CC[C@H](n2cc(C(N)=O)c(Nc3ccc(Cl)cc3)n2)[C@@H](C#N)C1` (racemic) [Example 38-4, 3-[(4-chlorophenyl)amino]-1-{(1S,2S,4R and 1R,2R,4S)-2-cyano-4-[(methylsulfonyl)amino]cyclohexyl}-1H-pyrazole-4-carboxamide] are 5 nM and 0.5 nM.
Take `N#C[C@H]1CC(NCC(=O)O)CC[C@@H]1n1cc(C(N)=O)c(Nc2ccc(S(=O)(=O)C(F)(F)F)cc2)n1` (single isomer, unassigned) [Example 28-160, N-{(3S,4S or 3R,4R)-4-[4-carbamoyl-3-({4-[(trifluoro-methyl)sulfonyl]phenyl}amino)-1H-pyrazol-1-yl]-3-cyanocyclohexyl}glycine]: the IC50 was found to be 1 nM in assay [1] and 0.2 nM in assay [2].
In the same order, the values of `CC1(O)CN([C@H]2CC[C@H](n3cc(C(N)=O)c(Nc4ccc(C(F)(F)F)cc4)n3)[C@@H](C#N)C2)C1` (single isomer, unassigned) [Example 28-198, 1-[(1S,2S,4S or 1R,2R,4R)-2-cyano-4-(3-hydroxy-3-methylazetidin-1-yl)cyclohexyl]-3-{[4-(trifluoromethyl)phenyl]amino}-1H-pyrazole-4-carboxamide] are 3 nM and 0.15 nM.
For `N#C[C@H]1C[C@@H](NC2COC2)CC[C@@H]1n1cc(C(N)=O)c(Nc2ccc(CC(F)(F)F)cc2)n1` (single isomer, unassigned) [Example 28-79, 1-[(1S,2S,4S or 1R,2R,4R)-2-cyano-4-(oxetan-3-ylamino)cyclohexyl]-3-{[4-(2,2,2-trifluoroethyl)phenyl]amino}-1H-pyrazole-4-carboxamide], in that order: 3 nM and 0.3 nM.
Consider `N#C[C@H]1C[C@H](N2CCC2)CC[C@@H]1n1cc(C(N)=O)c(Nc2ccc(C(F)F)nc2)n1` (single isomer, unassigned) [Example 28-50, 1-[(1S,2S,4R or 1R,2R,4S)-4-azetidin-1-yl-2-cyanocyclohexyl]-3-{[6-(difluoromethyl)pyridin-3-yl]amino}-1H-pyrazole-4-carboxamide], for which the half-inhibitory concentration (IC50) stood at 47 nM in assay [1] and 2 nM in assay [2].
In the same order, the values of `CS(=O)(=O)c1ccc(Nc2nn([C@H]3CC[C@@H](O)C[C@@H]3C#N)cc2C(N)=O)cc1` (single isomer, unassigned) [Example 25-28, 1-[(1S,2S,4R or 1R,2R,4S)-2-cyano-4-hydroxycyclohexyl]-3-{[4-(methylsulfonyl)phenyl]amino}-1H-pyrazole-4-carboxamide] are 3 nM and 0.1 nM.
For `CN(C)[C@H]1CC[C@H](n2cc(C(N)=O)c(Nc3ccccc3)n2)[C@@H](C#N)C1` (single isomer, unassigned) [Example 28-135, 1-[(1S,2S,4S or 1R,2R,4R)-2-cyano-4-(dimethylamino)cyclohexyl]-3-(phenylamino)-1H-pyrazole-4-carboxamide], in that order: 32 nM and 0.65 nM.
For `CN[C@@H]1CC[C@H](n2cc(C(N)=O)c(Nc3ccc(Cl)cc3)n2)[C@@H](C#N)C1` (single isomer, unassigned) [Example 28-42, 3-[(4-chlorophenyl)amino]-1-[(1S,2S,4R or 1R,2R,4S)-2-cyano-4-(methylamino)cyclohexyl]-1H-pyrazole-4-carboxamide], in that order: 36 nM and 2 nM.
As for `N#C[C@@H]1CCC[C@@H](O)C1n1cc(C(N)=O)c(Nc2ccccc2)n1` (mixture of isomers) [Example 2-5, 1-[(1R,2R,6R and 1S,2S,6S)-2-cyano-6-hydroxycyclohexyl]-3-(phenylamino)-1H-pyrazole-4-carboxamide], the IC50 is > 1500 nM in assay [1] and 700 nM in assay [2].
In the same order, the values of `COC(=O)C1CC[C@H](C#N)C(n2cc(C(N)=O)c(Nc3ccccc3)n2)C1` (mixture of isomers) [Example 2-4, methyl (3R,4R and 3S,4S)-3-[4-carbamoyl-3-(phenylamino)-1H-pyrazol-1-yl]-4-cyanocyclohexanecarboxylate] are > 1500 nM and 423 nM.
For `N#C[C@H]1CCCC[C@@H]1n1cc(C(N)=O)c(Nc2ccc(S(=O)(=O)Nc3ccc(C(F)(F)F)cc3)cc2)n1` (single isomer, unassigned) [Example 17-95, 1-[(1R,2R or 1S,2S)-2-cyanocyclohexyl]-3-[(4-{[4-(trifluoromethyl)phenyl]sulfamoyl}phenyl)amino]-1H-pyrazole-4-carboxamide], in that order: 31 nM and 6 nM.
For `N#C[C@H]1C[C@H](N[C@H](C2CC2)C(F)(F)F)CC[C@@H]1n1cc(C(N)=O)c(Nc2ccc(C(F)(F)F)cc2)n1` (single isomer, unassigned) [Example 28-193, 1-[(1S,2S,4R or 1R,2R,4S)-2-cyano-4-{[(1R)-1-cyclopropyl-2,2,2-trifluoroethyl]amino}cyclo-hexyl]-3-{[4-(trifluoromethyl)phenyl]amino}-1H-pyrazole-4-carboxamide], in that order: 1000 nM and 165 nM.
`N#C[C@H]1CCCC[C@@H]1n1cc(C(N)=O)c(Nc2ccc(S(=O)(=O)NCc3ccc(Cl)cc3)cc2)n1` (single isomer, unassigned) [Example 17-90, 3-({4-[(4-chlorobenzyl)sulfamoyl]phenyl}amino)-1-[(1R,2R or 1S,2S)-2-cyanocyclohexyl]-1H-pyrazole-4-carboxamide]: the figures for the IC50 in assay [1] and in assay [2] were 4 nM and 1 nM, respectively.
In the same order, the values of `CC1CN([C@H]2CC[C@H](n3cc(C(N)=O)c(Nc4ccc(Cl)cc4)n3)[C@@H](C#N)C2)C1` (single isomer, unassigned) [Example 28-96, 3-[(4-chlorophenyl)amino]-1-[(1S,2S,4S or 1R,2R,4R)-2-cyano-4-(3-methylazetidin-1-yl)cyclohexyl]-1H-pyrazole-4-carboxamide] are 85 nM and 2 nM.
In the same order, the values of `N#C[C@H]1C[C@H](O)CC[C@@H]1n1cc(C(N)=O)c(Nc2ccc(C(F)F)nc2)n1` (single isomer, unassigned) [Example 25-16, 1-[(1S,2S,4R or 1R,2R,4S)-2-cyano-4-hydroxycyclohexyl]-3-{[6-(difluoromethyl)pyridin-3-yl]amino}-1H-pyrazole-4-carboxamide] are 10 nM and 3 nM.
For `Cc1cccc(C)c1NS(=O)(=O)c1ccc(Nc2nn([C@H]3CCCC[C@@H]3C#N)cc2C(N)=O)cc1` (single isomer, unassigned) [Example 17-88, 1-[(1R,2R or 1S,2S)-2-cyanocyclohexyl]-3-({4-[(2,6-dimethylphenyl)sulfamoyl]phenyl}amino)-1H-pyrazole-4-carboxamide], in that order: 9 nM and 1 nM.

One may read the IC50 as the concentration at which inhibition is half-maximal.
